Test results reported in patent US9023789B2, “Amylin analogs and pharmaceutical compositions thereof” (Novo Nordisk A/S, priority 2012, dated 2015).
Numbered stars: 1 amine (or outer) side, 2 acyl side, 3 side chain; on linkers, the order of the positions; unused ones are H or OH. Bridge positions count the residues as written; N and C are the ends. Side chains are listed from the residue outwards. Peptide text beside a SMILES is read from it. * marks the point of attachment. C20 diacid = O=C(O)CCCCCCCCCCCCCCCCCCC(=O)*; γGlu = O=C(O)[C@H](CCC(=O)[*:2])N[*:1]; AEEA = NCCOCCOCC(=O)O

Columns and labels:
[1] = target: T1, human calcitonin receptor (Homo sapiens, UniProt P30988); experiment: ASSAY (VII) binding to the human calcitonin receptor (SPA, 125I-Calcitonin); conditions: read-out: hCTR bind IC50;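 also: cell membranes (35 ng/µL) combined with SPA beads in 40 µL of pH 7.4 Hepes buffer, 384-well format, signal counted on a TopCounter instrument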
T1 construct: expressed in transfected cells
T1 sequence (P30988 25-474): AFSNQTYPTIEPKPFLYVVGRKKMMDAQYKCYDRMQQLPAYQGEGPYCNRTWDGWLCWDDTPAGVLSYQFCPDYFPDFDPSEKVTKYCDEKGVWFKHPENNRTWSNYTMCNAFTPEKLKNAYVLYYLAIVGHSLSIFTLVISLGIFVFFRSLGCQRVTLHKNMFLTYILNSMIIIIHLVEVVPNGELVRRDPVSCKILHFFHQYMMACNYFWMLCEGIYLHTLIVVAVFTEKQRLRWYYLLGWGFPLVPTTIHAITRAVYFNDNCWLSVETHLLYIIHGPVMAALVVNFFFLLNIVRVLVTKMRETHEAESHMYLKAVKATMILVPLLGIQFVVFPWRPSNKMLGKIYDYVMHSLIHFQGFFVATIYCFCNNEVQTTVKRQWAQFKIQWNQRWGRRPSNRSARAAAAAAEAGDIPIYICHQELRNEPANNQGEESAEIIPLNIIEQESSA

[2] = target: T2, human amylin 3(a) receptor (human calcitonin receptor + RAMP-3) in BHK570 cells (Homo sapiens, UniProt O60896+P30988); experiment: ASSAY (II)a functional assay, human amylin receptor (CRE luciferase); assay type: cell-based; conditions: for EC50: human amylin receptor functional potency, assay (II), read-out: hAmylin-R funct. EC50
T2 construct: expressed in transfected cells
Outline: (§1)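 Cells were seeded and cultured overnight, then incubated with standard or sample for 3 h at 37° C in serum-containing medium at pH 7.4. The medium was then swapped for PBS, LucLite was added for 30 min at room temperature, and luminescence was recorded. Cells were BHK with CRE-luc and calcitonin receptor, ± RAMP-3.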

[3] = target: T3, human amylin receptor (membranes from Amylin 3(a)/CRE-luc cells) (Homo sapiens, UniProt O60896+P30988); experiment: ASSAY (V) binding to the human amylin receptor (SPA, 125I-rat amylin); conditions: for IC50: Table 4, read-out: hAmylin-R bind IC50;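 as to all read-outs here: competition binding of cell membranes (35 ng/µL) mixed with SPA beads in 384-well plates at 40 µL total volume, read by scintillation counting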
T3 construct: expressed in transfected cells
T3 sequence (P30988 25-474): T1 sequence (P30988 25-474)
T3 sequence (O60896 24-148 partner): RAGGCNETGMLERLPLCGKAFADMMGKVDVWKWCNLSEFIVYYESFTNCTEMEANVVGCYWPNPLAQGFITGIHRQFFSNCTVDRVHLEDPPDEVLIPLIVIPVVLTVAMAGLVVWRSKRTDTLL

[4] = target: T4, human calcitonin (a) receptor in BHK570 cells (Homo sapiens, UniProt P30988); experiment: ASSAY (II)a functional assay, human calcitonin receptor (CRE luciferase); assay type: cell-based; conditions: read-out: hCTR funct. EC50
T4 construct: expressed in transfected cells
T4 sequence (P30988 25-474): T1 sequence (P30988 25-474)
Outline: as §1

[5] = hCTR funct. EC50 divided by hAmylin-R funct. EC50
[6] = hCTR funct. EC50 over hAmylin-R funct. EC50
[7] = human functional selectivity: hCTR funct. EC50 / hAmylin-R funct. EC50
[8] = Table 5, selectivity, hCTR bind IC50 / hAmylin-R bind IC50
[9] = Table 5a, selectivity, hCTR bind IC50 / hAmylin-R bind IC50
[10] = Table 5b, selectivity, hCTR bind IC50 / hAmylin-R bind IC50
[11] = Table 5c, selectivity, hCTR bind IC50 / hAmylin-R bind IC50
[12] = Table 7, human binding selectivity, included for comparison
[13] = Table 7a (preferred compounds), human binding selectivity, included for comparison
[14] = ratio of human calcitonin receptor binding IC50 to human amylin receptor binding IC50

CC[C@H](C)[C@H](NC(=O)[C@H](C)NC(=O)CNC(=O)[C@H](Cc1ccccc1)NC(=O)[C@H](CC(N)=O)NC(=O)[C@@H]1CCCN1C(=O)[C@H](CO)NC(=O)[C@H](CO)NC(=O)[C@H](Cc1c[nH]cn1)NC(=O)[C@H](CCCNC(=N)N)NC(=O)[C@H](CC(C)C)NC(=O)[C@H](Cc1ccccc1)NC(=O)[C@H](Cc1c[nH]cn1)NC(=O)[C@H](C)NC(=O)[C@H](CC(C)C)NC(=O)[C@H](CCCNC(=N)N)NC(=O)[C@H](CCC(N)=O)NC(=O)[C@@H](NC(=O)[C@H](C)NC(=O)[C@@H]1CSSC[C@H](NC(=O)[C@@H](N)CCCCNC(=O)COCCOCCNC(=O)CC[C@H](NC(=O)CCCCCCCCCCCCCCCCCCC(=O)O)C(=O)O)C(=O)N[C@@H](CC(N)=O)C(=O)N[C@@H]([C@@H](C)O)C(=O)N[C@@H](C)C(=O)N[C@@H]([C@@H](C)O)C(=O)N1)[C@@H](C)O)C(=O)N1CCC[C@H]1C(=O)N[C@@H](CO)C(=O)N[C@@H](CO)C(=O)N[C@H](C(=O)N[C@@H](CC(N)=O)C(=O)N[C@H](C(=O)NCC(=O)N[C@@H](CCCNC(=N)N)C(=O)N[C@@H](CC(N)=O)C(=O)N[C@H](C(=O)N[C@@H](Cc1ccc(O)cc1)C(N)=O)[C@@H](C)O)C(C)C)[C@@H](C)O [Example 84] (H-K([AEEA-γGlu-C20 diacid])CNTATCATQRLAHFLRHSSPNFGAIPSSTNVGRNTY-NH2; disulfide 2-7 (inferred); N-terminus assumed)
IC50 [1]: 88.9 nM
Ratio hCT/hAmylin funct. [2, 5]: 32.5
Ratio hCT/hAmylin funct. [2, 6]: 32.5
EC50 [2]: 0.169 nM
Ratio hCT/hAmylin funct. [2, 7]: 32.5
IC50 [3]: 0.743 nM
Ratio hCT/hAmylin binding [3, 8]: 119.6
Ratio hCT/hAmylin binding [3, 9]: 119.6
Ratio hCT/hAmylin binding [3, 10]: 119.6
Ratio hCT/hAmylin binding [3, 11]: 119.6
Ratio hCT/hAmylin binding [3, 12]: 119.6
Ratio hCT/hAmylin binding [3, 13]: 119.6
Ratio hCT/hAmylin binding [3, 14]: 119.6
EC50 [4]: 5.49 nM

CC[C@H](C)[C@H](NC(=O)[C@H](C)NC(=O)CNC(=O)[C@H](Cc1ccccc1)NC(=O)[C@H](CC(N)=O)NC(=O)[C@@H]1CCCN1C(=O)[C@H](CO)NC(=O)[C@H](CO)NC(=O)[C@H](Cc1c[nH]cn1)NC(=O)[C@H](CCCNC(=N)N)NC(=O)[C@H](CC(C)C)NC(=O)[C@H](Cc1ccccc1)NC(=O)[C@H](CCC(=O)O)NC(=O)[C@H](C)NC(=O)[C@H](CC(C)C)NC(=O)[C@H](CCCNC(=N)N)NC(=O)[C@H](CCC(N)=O)NC(=O)[C@@H](NC(=O)[C@H](C)NC(=O)[C@@H]1CSSC[C@H](NC(=O)[C@@H](N)CCCCNC(=O)CC[C@H](NC(=O)CC[C@H](NC(=O)CCCCCCCCCCCCCCCCCCC(=O)O)C(=O)O)C(=O)O)C(=O)N[C@@H](CC(N)=O)C(=O)N[C@@H]([C@@H](C)O)C(=O)N[C@@H](C)C(=O)N[C@@H]([C@@H](C)O)C(=O)N1)[C@@H](C)O)C(=O)N1CCC[C@H]1C(=O)N[C@@H](CO)C(=O)N[C@@H](CO)C(=O)N[C@H](C(=O)N[C@@H](CC(N)=O)C(=O)N[C@H](C(=O)NCC(=O)N[C@@H](Cc1c[nH]cn1)C(=O)N[C@@H](CC(N)=O)C(=O)N[C@H](C(=O)N[C@@H](Cc1ccc(O)cc1)C(N)=O)[C@@H](C)O)C(C)C)[C@@H](C)O [Example 87] (H-K([γGlu-γGlu-C20 diacid])CNTATCATQRLAEFLRHSSPNFGAIPSSTNVGHNTY-NH2; disulfide 2-7)
IC50 [1]: 22.5 nM
Ratio hCT/hAmylin funct. [2, 5]: 3.8
Ratio hCT/hAmylin funct. [2, 6]: 3.8
EC50 [2]: 0.285 nM
Ratio hCT/hAmylin funct. [2, 7]: 3.8
IC50 [3]: 0.633 nM
Ratio hCT/hAmylin binding [3, 8]: 35.6
Ratio hCT/hAmylin binding [3, 9]: 35.6
Ratio hCT/hAmylin binding [3, 10]: 35.6
Ratio hCT/hAmylin binding [3, 11]: 35.6
Ratio hCT/hAmylin binding [3, 12]: 35.6
Ratio hCT/hAmylin binding [3, 13]: 35.6
Ratio hCT/hAmylin binding [3, 14]: 35.6
EC50 [4]: 1.09 nM

CC[C@H](C)[C@H](NC(=O)[C@H](C)NC(=O)CNC(=O)[C@H](Cc1ccccc1)NC(=O)[C@H](CC(N)=O)NC(=O)[C@@H]1CCCN1C(=O)[C@H](CO)NC(=O)[C@H](CO)NC(=O)[C@H](Cc1c[nH]cn1)NC(=O)[C@H](CCCNC(=N)N)NC(=O)[C@H](CC(C)C)NC(=O)[C@H](Cc1ccccc1)NC(=O)[C@H](C)NC(=O)[C@H](C)NC(=O)[C@H](CC(C)C)NC(=O)[C@H](CCCNC(=N)N)NC(=O)[C@H](CCC(N)=O)NC(=O)[C@@H](NC(=O)[C@H](C)NC(=O)[C@@H]1CSSC[C@H](NC(=O)[C@@H](N)CCCCNC(=O)CC[C@H](NC(=O)CCCCCCCCCCCCCCCCCCC(=O)O)C(=O)O)C(=O)N[C@@H](CC(N)=O)C(=O)N[C@@H]([C@@H](C)O)C(=O)N[C@@H](C)C(=O)N[C@@H]([C@@H](C)O)C(=O)N1)[C@@H](C)O)C(=O)N1CCC[C@H]1C(=O)N[C@@H](CO)C(=O)N[C@@H](CO)C(=O)N[C@H](C(=O)N[C@@H](CC(N)=O)C(=O)N[C@H](C(=O)NCC(=O)N1CCC[C@H]1C(=O)N[C@@H](CC(N)=O)C(=O)N[C@H](C(=O)N[C@@H](Cc1ccc(O)cc1)C(N)=O)[C@@H](C)O)C(C)C)[C@@H](C)O [Example 94] (H-K([γGlu-C20 diacid])CNTATCATQRLAAFLRHSSPNFGAIPSSTNVGPNTY-NH2; disulfide 2-7 (inferred))
IC50 [1]: 6.86 nM
Ratio hCT/hAmylin funct. ([2]; hCTR funct. EC50 / hAmylin-R funct. EC50): 4.5
Ratio hCT/hAmylin funct. [2, 5]: 4.5
EC50 [2]: 0.07 nM
Ratio hCT/hAmylin funct. [2, 7]: 4.5
IC50 [3]: 0.148 nM
Ratio hCT/hAmylin binding [3, 8]: 46.3
Ratio hCT/hAmylin binding [3, 9]: 46.3
Ratio hCT/hAmylin binding [3, 10]: 46.3
Ratio hCT/hAmylin binding [3, 11]: 46.3
Ratio hCT/hAmylin binding [3, 12]: 46.3
Ratio hCT/hAmylin binding [3, 13]: 46.3
Ratio hCT/hAmylin binding [3, 14]: 46.3
EC50 [4]: 0.316 nM

CC[C@H](C)[C@H](NC(=O)[C@H](C)NC(=O)CNC(=O)[C@H](Cc1ccccc1)NC(=O)[C@H](CC(N)=O)NC(=O)[C@@H]1CCCN1C(=O)[C@H](CO)NC(=O)[C@H](CO)NC(=O)[C@H](Cc1c[nH]cn1)NC(=O)[C@H](CCCNC(=N)N)NC(=O)[C@H](CC(C)C)NC(=O)[C@H](Cc1ccccc1)NC(=O)[C@H](CC(N)=O)NC(=O)[C@H](C)NC(=O)[C@H](CC(C)C)NC(=O)[C@H](CCCNC(=N)N)NC(=O)[C@H](CCC(N)=O)NC(=O)[C@@H](NC(=O)[C@H](C)NC(=O)[C@@H]1CSSC[C@H](NC(=O)[C@@H](N)CCCCNC(=O)COCCOCCNC(=O)COCCOCCNC(=O)CC[C@H](NC(=O)CCCCCCCCCCCCCCCCCCC(=O)O)C(=O)O)C(=O)N[C@@H](CC(N)=O)C(=O)N[C@@H]([C@@H](C)O)C(=O)N[C@@H](C)C(=O)N[C@@H]([C@@H](C)O)C(=O)N1)[C@@H](C)O)C(=O)N1CCC[C@H]1C(=O)N[C@@H](CO)C(=O)N[C@@H](CO)C(=O)N[C@H](C(=O)N[C@@H](CC(N)=O)C(=O)N[C@H](C(=O)NCC(=O)N[C@@H](CCCNC(=N)N)C(=O)N[C@@H](CC(N)=O)C(=O)N[C@H](C(=O)N[C@@H](Cc1ccc(O)cc1)C(N)=O)[C@@H](C)O)C(C)C)[C@@H](C)O [Example 95] (H-K([AEEA-AEEA-γGlu-C20 diacid])CNTATCATQRLANFLRHSSPNFGAIPSSTNVGRNTY-NH2; disulfide 2-7 (inferred); N-terminus assumed)
IC50 [1]: 61.3 nM
Ratio hCT/hAmylin funct. [2, 5]: 33.0
Ratio hCT/hAmylin funct. [2, 6]: 33.0
EC50 [2]: 0.651 nM
Ratio hCT/hAmylin funct. [2, 7]: 33.0
IC50 [3]: 0.967 nM
Ratio hCT/hAmylin binding [3, 8]: 63.4
Ratio hCT/hAmylin binding [3, 9]: 63.4
Ratio hCT/hAmylin binding [3, 10]: 63.4
Ratio hCT/hAmylin binding [3, 11]: 63.4
Ratio hCT/hAmylin binding [3, 12]: 63.4
Ratio hCT/hAmylin binding [3, 13]: 63.4
Ratio hCT/hAmylin binding [3, 14]: 63.4
EC50 [4]: 21.5 nM
